Assay results as given in patent publication US7368437B1, “Bicyclic heterocycles, processes for their preparation and their use as herbicides and pharmaceutical agents” (Bayer CropScience AG, priority 1999, dated 2008).

Tests used:
[1] = test system: Xanthomonas oryzae; settings: stated in the literature; cited from earlier work

Work on `CN(C)c1ncc2nnc([C@@H]3O[C@H](CO)[C@@H](O)[C@H]3O)n2n1` [Ig, 6-Dimethylamino-3-β-ribofuranosyl-1,2,4-triazolo[3,4-f]-1,2,4-triazine] yielded a melting point of 171 to 173 °C.

`CN(C)c1ncc2nnc([C@@H]3O[C@H](COC(=O)c4ccccc4)[C@@H](OC(=O)c4ccccc4)[C@H]3OC(=O)c3ccccc3)n2n1` [If, 6-Dimethylamino-3-(2′,3′,5′-tri-O-benzoyl-β-ribofuranosyl)-1,2,4-triazolo-[3,4-f]-1,2,4-triazine] showed a melting point of 79 to 80 °C.

In the case of `OC[C@H]1O[C@@H](c2n[nH]c3cncnc23)[C@H](O)[C@@H]1O` [Ib, 3-β-D-Ribofuranosyl-1H-pyrazolo[4,3-d]pyrimidine], the melting point is given as 227 to 228 °C and the “action against Xanthomonas oryzae” value [1] is given as “fungicidal action”.
